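Values below derive from 48-hour exposures of cells grown in 96-well plates, with endpoints linearly interpolated between the two concentrations bracketing the appropriate inhibition level. TGI denotes the concentration required for complete inhibition of growth.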 Activity calls are given as the source filed them. No stated cut-off is given here; in the data, active means GI50 below about 0.43 µM; inactive means the rest.
How the values were obtained:
Assay in all cases: NCI-60 cell line screen, 48 h
786-0 renal = test system: 786-0 renal
A549 NSCLC = test system: A549 NSCLC
ACHN renal = test system: ACHN renal
CAKI-1 renal = test system: CAKI-1 renal
CCRF-CEM leukemia = test system: CCRF-CEM leukemia
COLO 205 colon = test system: COLO 205 colon
DLD-1 colon = test system: DLD-1 colon
DMS 273 small cell lung = test system: DMS 273 small cell lung
EKVX NSCLC = test system: EKVX NSCLC
HCT-15 colon = test system: HCT-15 colon
HL-60(TB) leukemia = test system: HL-60(TB) leukemia
HOP-62 NSCLC = test system: HOP-62 NSCLC
HOP-92 NSCLC = test system: HOP-92 NSCLC
HT29 colon = test system: HT29 colon
IGROV1 ovarian = test system: IGROV1 ovarian
K-562 leukemia = test system: K-562 leukemia
KM12 colon = test system: KM12 colon
KM20L2 colon = test system: KM20L2 colon
LOX IMVI melanoma = test system: LOX IMVI melanoma
LXFL 529 NSCLC = test system: LXFL 529 NSCLC
M14 melanoma = test system: M14 melanoma
MALME-3M melanoma = test system: MALME-3M melanoma
MOLT-4 leukemia = test system: MOLT-4 leukemia
NCI-H226 lung = test system: NCI-H226 lung
NCI-H23 lung = test system: NCI-H23 lung
NCI-H460 lung = test system: NCI-H460 lung
NCI-H522 lung = test system: NCI-H522 lung
OVCAR-3 ovarian = test system: OVCAR-3 ovarian
OVCAR-4 ovarian = test system: OVCAR-4 ovarian
OVCAR-5 ovarian = test system: OVCAR-5 ovarian
OVCAR-8 ovarian = test system: OVCAR-8 ovarian
RPMI-8226 leukemia = test system: RPMI-8226 leukemia
RXF 393 renal = test system: RXF 393 renal
RXF-631 renal = test system: RXF-631 renal
SF-268 CNS = test system: SF-268 CNS
SF-295 CNS = test system: SF-295 CNS
SF-539 CNS = test system: SF-539 CNS
SK-MEL-2 melanoma = test system: SK-MEL-2 melanoma
SK-OV-3 ovarian = test system: SK-OV-3 ovarian
SN12C renal = test system: SN12C renal
SNB-19 CNS = test system: SNB-19 CNS
SNB-75 CNS = test system: SNB-75 CNS
SNB-78 CNS = test system: SNB-78 CNS
SR leukemia = test system: SR leukemia
SW-620 colon = test system: SW-620 colon
TK-10 renal = test system: TK-10 renal
U251 CNS = test system: U251 CNS
UACC-257 melanoma = test system: UACC-257 melanoma
UACC-62 melanoma = test system: UACC-62 melanoma
UO-31 renal = test system: UO-31 renal
XF 498 CNS = test system: XF 498 CNS
A498 renal = test system: A498 renal
DMS 114 small cell lung = test system: DMS 114 small cell lung
HCC-2998 colon = test system: HCC-2998 colon
HCT-116 colon = test system: HCT-116 colon
SK-MEL-5 melanoma = test system: SK-MEL-5 melanoma

## C[C@@]1(CO)O[C@H]1CCC#C[Si](C)(C)C
786-0 renal
  outcome: inactive
A549 NSCLC
  outcome: inactive
ACHN renal
  outcome: inactive
CAKI-1 renal
  outcome: inactive
CCRF-CEM leukemia
  outcome: inactive
COLO 205 colon
  outcome: inactive
DLD-1 colon
  outcome: inactive
DMS 273 small cell lung
  outcome: inactive
EKVX NSCLC
  outcome: inactive
HCT-15 colon
  outcome: inactive
HL-60(TB) leukemia
  outcome: inactive
HOP-62 NSCLC
  outcome: inactive
HOP-92 NSCLC
  outcome: inactive
HT29 colon
  outcome: inactive
IGROV1 ovarian
  outcome: inactive
K-562 leukemia
  outcome: inactive
KM12 colon
  outcome: inactive
KM20L2 colon
  outcome: inactive
LOX IMVI melanoma
  outcome: inactive
LXFL 529 NSCLC
  outcome: inactive
M14 melanoma
  outcome: inactive
MALME-3M melanoma
  outcome: inactive
MOLT-4 leukemia
  outcome: inactive
NCI-H226 lung
  outcome: inactive
NCI-H23 lung
  outcome: inactive
NCI-H460 lung
  outcome: inactive
NCI-H522 lung
  outcome: inactive
OVCAR-3 ovarian
  outcome: inactive
OVCAR-4 ovarian
  outcome: inactive
OVCAR-5 ovarian
  outcome: inactive
OVCAR-8 ovarian
  outcome: inactive
RPMI-8226 leukemia
  outcome: inactive
RXF 393 renal
  outcome: inactive
RXF-631 renal
  outcome: inactive
SF-268 CNS
  outcome: inactive
SF-295 CNS
  outcome: inactive
SF-539 CNS
  outcome: inactive
SK-MEL-2 melanoma
  outcome: inactive
SK-OV-3 ovarian
  outcome: inactive
SN12C renal
  outcome: inactive
SNB-19 CNS
  outcome: inactive
SNB-75 CNS
  outcome: inactive
SNB-78 CNS
  outcome: inactive
SR leukemia
  outcome: inactive
SW-620 colon
  outcome: inactive
TK-10 renal
  outcome: inactive
U251 CNS
  outcome: inactive
UACC-257 melanoma
  outcome: inactive
UACC-62 melanoma
  outcome: inactive
UO-31 renal
  outcome: inactive
XF 498 CNS
  outcome: inactive

## CC1=C(C(=O)CC(=O)C(=O)Nc2ccccc2C(F)(F)F)Sc2ccccc2N1
786-0 renal
  TGI: > 100 µM
A498 renal
  TGI: > 100 µM
A549 NSCLC
  TGI: > 100 µM
ACHN renal
  TGI: > 100 µM
CAKI-1 renal
  TGI: > 100 µM
CCRF-CEM leukemia
  TGI: > 100 µM
COLO 205 colon
  TGI: > 100 µM
DLD-1 colon
  TGI: > 100 µM
DMS 114 small cell lung
  TGI: > 100 µM
DMS 273 small cell lung
  TGI: > 100 µM
EKVX NSCLC
  TGI: > 100 µM
HCC-2998 colon
  TGI: > 100 µM
HCT-116 colon
  TGI: > 100 µM
HCT-15 colon
  TGI: > 100 µM
HL-60(TB) leukemia
  TGI: > 100 µM
HOP-62 NSCLC
  TGI: 96.8 µM
HOP-92 NSCLC
  TGI: 83.5 µM
HT29 colon
  TGI: > 100 µM
IGROV1 ovarian
  TGI: > 100 µM
K-562 leukemia
  TGI: > 100 µM
KM12 colon
  TGI: > 100 µM
KM20L2 colon
  TGI: > 100 µM
LOX IMVI melanoma
  TGI: > 100 µM
LXFL 529 NSCLC
  TGI: > 100 µM
M14 melanoma
  TGI: > 100 µM
MALME-3M melanoma
  TGI: > 100 µM
NCI-H226 lung
  TGI: 87.8 µM
NCI-H23 lung
  TGI: 85.6 µM
NCI-H460 lung
  TGI: > 100 µM
NCI-H522 lung
  TGI: 68.4 µM
OVCAR-3 ovarian
  TGI: > 100 µM
OVCAR-4 ovarian
  TGI: > 100 µM
OVCAR-5 ovarian
  TGI: > 100 µM
OVCAR-8 ovarian
  TGI: > 100 µM
RPMI-8226 leukemia
  TGI: > 100 µM
RXF 393 renal
  TGI: 66.2 µM
RXF-631 renal
  TGI: > 100 µM
SF-268 CNS
  TGI: 71.4 µM
SF-295 CNS
  TGI: > 100 µM
SF-539 CNS
  TGI: > 100 µM
SK-MEL-2 melanoma
  TGI: > 100 µM
SK-MEL-5 melanoma
  TGI: > 100 µM
SK-OV-3 ovarian
  TGI: > 100 µM
SN12C renal
  TGI: > 100 µM
SNB-19 CNS
  TGI: > 100 µM
SNB-75 CNS
  TGI: 80.1 µM
SNB-78 CNS
  TGI: > 100 µM
SW-620 colon
  TGI: > 100 µM
TK-10 renal
  TGI: > 100 µM
U251 CNS
  TGI: > 100 µM
UACC-257 melanoma
  TGI: > 100 µM
UACC-62 melanoma
  TGI: > 100 µM
UO-31 renal
  TGI: 61.7 µM
XF 498 CNS
  TGI: > 100 µM

From PubChem BioAssay (NCI)
